Measurements from patent publication US8268865B2, “Quaternary alkyl ammonium bacterial efflux pump inhibitors and therapeutic uses thereof” (Rempex Pharmaceuticals, Inc., priority 2007, dated 2012).
Like-named read-outs stand apart in the source and are kept apart here.

Experiments:
[1] = Rat serum pharmacokinetics after 1.5-hour IV infusion; assay type: in vivo; conditions: for clearance: read-out: Clearance (free drug clearance) (converted)
Description: In the experiment depicted in Table 2, rat serum pharmacokinetics of compounds selected inhibitor compounds was evaluated after 1.5-hour IV infusion of 1.5 ml solution of corresponding efflux pump inhibitor in 0.9% saline. Depending on the concentration used the total infused dose was 10 or 20 mg/kg. A two-compartment model was used to fit the data and calculate PK parameters.

[2] = system: P. aeruginosa strain PAM1723 overexpressing MexAB-OprM; assay: Checkerboard assay: potentiation of in vitro antibacterial activity of levofloxacin by efflux pump inhibitors; assay type: cell-based; conditions: for MPC8: lowest inhibitor concentration giving antibacterial activity with levofloxacin at 1/8 of its MIC; for MPC8 / MPC32: PAM1723, MHB, 20 h at 35° C.; for MPC32: lowest inhibitor concentration giving antibacterial activity with levofloxacin at 1/32 of its MIC
Description: EPI activity was recorded as concentration of an EPI compound that is necessary to increase susceptibility to levofloxacin of the strain of P. aeruginosa, PAM1723, overexpressing the MexAB-OprM efflux pump eight-fold. The levofloxacin potentiating activity of the test compounds was assessed by the checkerboard assay (Antimicrobial Combinations, Antibiotics in Laboratory Medicine, Ed. Victor Lorian, M.D., Fourth edition, 1996, pp 333-338, which is incorporated herein by reference in its entirety) using a broth microdilution method performed as recommended by the NCCLS (National Committee for Clinical Laboratory Standards (NCCLS), 1997, Methods for Dilution of Antimicrobial Susceptibility Tests for Bacteria That Grow Aerobically, Fourth Edition; Approved Standard. NCCLS Document M7-A4, Vol 17 No. 2, which is incorporated herein by reference in its entirety). In this assay, multiple dilutions of two drugs, namely an EPI and levofloxacin, were tested, alone and in combination, at concentrations equal to, above and below their respective minimal inhibitory concentrations (MICs). All EPI compounds were readily soluble in water and stock solutions were prepared at a final concentration of 10 mg/ml. Stock solutions were further diluted, according to the needs of the particular assay, in Mueller Hinton Broth (MHB). Stock solution was stored at −80° C.
The checkerboard assay was performed in microtiter plates. Levofloxacin was diluted in the x-axis, each column containing a single concentration of levofloxacin. EPIs were diluted in the y-axis, each row containing a single concentration of an EPI. The result of these manipulations was that each well of the microtiter plate contained a unique combination of concentrations of the two agents. The assay was performed in MHB with a final bacterial inoculum of 5×105 CFU/ml (from an early-log phase culture). Microtiter plates were incubated during 20 h at 35° C. and were read using a microtiterplate reader (Molecular Devices) at 650 nm as well as visual observation using a microtiter plate-reading mirror.
In the experiment depicted in Table 1, potentiating activities of selected inhibitors are reported as Minimum Potentiating Concentration MPC8 values (or MPC32) which correspond to the lowest concentration of the inhibitor required to achieve antibacterial activity in combination with the concentration of levofloxacin equal to ⅛ (or 1/32) of the levofloxacin concentration required to achieve the same antibacterial effect alone (MIC of levofloxacin).

[3] = rat serum, 1.5-hour IV infusion, dose 20 mg/kg, two-compartment model
[4] = rat serum, 1.5-hour IV infusion, dose 20 mg/kg, read-out: Cmax
[5] = rat, IV infusion, comparison among compounds of Table 2
[6] = rat serum, 1.5-hour IV infusion, dose 10 mg/kg, two-compartment model
[7] = rat serum, 1.5-hour IV infusion, dose 10 mg/kg, read-out: Cmax

Molecule	clearance [1, 3] [mL/min/kg]	Cmax [1, 4] [ng/mL]	clearance [1, 6] [mL/min/kg]	Cmax [1, 7] [ng/mL]	also measured
C[C@@H](N)C(=O)N[C@@H](CCC[N+](C)(CCN)CCN)C(=O)N[C@@H](Cc1ccc(C(F)(F)F)cc1)C(=O)Nc1cnc2ccccc2c1 [Compound 44, 3-[(2S)-2-[(4S)—N,N-bis(2-azaniumylethyl)-4-formamido-4-[(1R)-1-formamidoethan-1-aminium]-N-methylbutan-1-aminium]-3-[4-(trifluoromethyl)phenyl]propanamido]quinolin-1-ium pentachloride]	10.8	40200	–	–	serum PK profile (in words) [1, 5]: best serum PK profiles
C[N+](C)(CCN)CCC[C@H](N)C(=O)N[C@H](CCc1ccccc1)C(=O)Nc1ccc(F)c(F)c1F [Compound 5, [(4S)-4-azaniumyl-4-{[(1R)-3-phenyl-1-[(2,3,4-trifluorophenyl)carbamoyl]propyl]carbamoyl}butyl](2-azaniumylethyl)dimethylazanium trichloride]	20.5	19600	–	–	–
C[N+](C)(CCN)CCC[C@H](N)C(=O)N[C@H](CCc1ccccc1)C(=O)Nc1cnc2ccccc2c1 [Compound 4, 3-[(2S)-2-[(4R)-1-N-(2-azaniumylethyl)-4-formamido-1-N,1-N-dimethylbutane-1,4-bis(aminium)]-4-phenylbutanamido]quinolin-1-ium tetrachloride]	–	–	21.5	13400	–
C[N+](CCN)(CCN)CCC[C@H](N)C(=O)N[C@@H](CCc1ccccc1)C(=O)Nc1cnc2ccccc2c1.Cl.Cl.[Cl-] [Compound 29, 3-[(2S)-2-[(4S)-1-N,1-N-bis(2-azaniumylethyl)-4-formamido-1-N-methylbutane-1,4-bis(aminium)]-4-phenylbutanamido]quinolin-1-ium pentachloride]	–	–	14.2	25600	–
C[N+](CCN)(CCN)CCC[C@H](N)C(=O)N[C@@H](CC1CCCCC1)C(=O)Nc1cnc2ccccc2c1.Cl.Cl.Cl.Cl.[Cl-] [Compound 25, 3-[(2S)-2-[(4S)-1-N,1-N-bis(2-azaniumylethyl)-4-formamido-1-N-methylbutane-1,4-bis(aminium)]-3-cyclohexylpropanamido]quinolin-1-ium pentachloride]	–	–	16.7	13000	–
C[N+](CCN)(CCN)CCC[C@H](N)C(=O)N[C@H](CCc1ccccc1)C(=O)Nc1cnc2ccccc2c1 [Compound 27, 3-[(2R)-2-[(4S)-1-N,1-N-bis(2-azaniumylethyl)-4-formamido-1-N-methylbutane-1,4-bis(aminium)]-4-phenylbutanamido]quinolin-1-ium pentachloride]	5.83	54600	–	–	serum PK profile (in words) [1, 5]: best serum PK profiles
3-{2-[(4S)-1-N,1-N-bis(2-azaniumylethyl)-4-(N-methylformamido)-1-N-(prop-2-en-1-yl)butane-1,4-bis(aminium)]-3-[4-(trifluoromethyl)phenyl]propanamido}quinolin-1-ium pentachloride [Compound 92]	–	–	–	–	Cmax ([1]; rat serum, 1.5-hour IV infusion, dose 20 mg/kg): 18300 ng/mL; Clearance (free drug clearance) [1, 3]: 26.5 mL/min/kg; MPC8 [2]: 0.312 µg/mL; MPC32 [2]: 0.625 µg/mL
C[N+](CCN)(CCN)CCC[C@H](N)C(=O)N[C@H](CCc1ccc(C(F)(F)F)cc1)C(=O)Nc1cnc2ccccc2c1 [Compound 33, 3-[(2R)-2-[(4S)-1-N,1-N-bis(2-azaniumylethyl)-4-formamido-1-N-methylbutane-1,4-bis(aminium)]-4-[4-(trifluoromethyl)phenyl]butanamido]quinolin-1-ium pentachloride]	16.7	63000	–	–	–
C[N+](CCN)(CCN)CCC[C@H](N)C(=O)N[C@@H](Cc1ccc(C(F)(F)F)cc1)C(=O)Nc1cnc2ccccc2c1 [Compound 11, 3-[(2R)-2-[(4R)-1-N,1-N-bis(2-azaniumylethyl)-4-formamido-1-N-methylbutane-1,4-bis(aminium)]-3-[4-(trifluoromethyl)phenyl]propanamido]quinolin-1-ium pentachloride]	–	–	47.8	7300	–
Mixture of 3-[(2S,3R)-2-[(4S)-1-N,1-N-bis(2-azaniumylethyl)-4-formamido-1-N-methylbutane-1,4-bis(aminium)]-3-hydroxy-3-[4-(trifluoromethyl)phenyl]propanamido]quinolin-1-ium pentachloride 15a and 3-[(2R,3S)-2-[(4S)-1-N,1-N-bis(2-azaniumylethyl)-4-formamido-1-N-methylbutane-1,4-bis(aminium)]-3-hydroxy-3-[4-(trifluoromethyl)phenyl]propanamido]quinolin-1-ium pentachloride 15b [Compound 15]	–	–	–	–	MPC8 [2]: 0.312 µg/mL; MPC32 [2]: 0.625 µg/mL
3-[(2R)-2-[(4S)-1-N,1-N-bis(2-azaniumylethyl)-4-formamido-1-N-methylbutane-1,4-bis(aminium)]-4-phenylbutanamido]-1-{[4-(trifluoromethyl)phenyl]methyl}quinolin-1-ium pentachloride [Compound 53]	–	–	–	–	MPC8 [2]: 2.5 µg/mL; MPC32 [2]: 5 µg/mL
C[N+](CCN)(CCN)CCC[C@H](N)C(=O)N[C@H](Cc1ccc(C(F)(F)F)cc1)C(=O)Nc1cnc2ccccc2c1 [Compound 10, 3-[(2R)-2-[(4S)-1-N,1-N-bis(2-azaniumylethyl)-4-formamido-1-N-methylbutane-1,4-bis(aminium)]-3-[4-(trifluoromethyl)phenyl]propanamido]quinolin-1-ium pentachloride]	–	–	5.17	30600	free drug clearance (in words) [1, 5]: lowest free drug clearance; serum PK profile (in words) [1, 5]: best serum PK profiles; efflux pump inhibitory activity (in words) ([2]; comparison among tested compounds): one of the best efflux pump inhibitory activities
